As a reminder, the IC50 is the concentration that inhibits the measured activity by half.

SMILES strings stand for the structures.

The target in this experiment is T1, DPP-IV (Homo sapiens, UniProt P27487).
T1 construct: an extract of the human colon carcinoma cell line Caco-2 is used as the DPP IV source; endogenous in cells; host or cells: Caco-2 (human colon carcinoma), differentiated to induce DPP-IV expression; extract solubilized with Nonidet-P40
T1 sequence (P27487 whole entry): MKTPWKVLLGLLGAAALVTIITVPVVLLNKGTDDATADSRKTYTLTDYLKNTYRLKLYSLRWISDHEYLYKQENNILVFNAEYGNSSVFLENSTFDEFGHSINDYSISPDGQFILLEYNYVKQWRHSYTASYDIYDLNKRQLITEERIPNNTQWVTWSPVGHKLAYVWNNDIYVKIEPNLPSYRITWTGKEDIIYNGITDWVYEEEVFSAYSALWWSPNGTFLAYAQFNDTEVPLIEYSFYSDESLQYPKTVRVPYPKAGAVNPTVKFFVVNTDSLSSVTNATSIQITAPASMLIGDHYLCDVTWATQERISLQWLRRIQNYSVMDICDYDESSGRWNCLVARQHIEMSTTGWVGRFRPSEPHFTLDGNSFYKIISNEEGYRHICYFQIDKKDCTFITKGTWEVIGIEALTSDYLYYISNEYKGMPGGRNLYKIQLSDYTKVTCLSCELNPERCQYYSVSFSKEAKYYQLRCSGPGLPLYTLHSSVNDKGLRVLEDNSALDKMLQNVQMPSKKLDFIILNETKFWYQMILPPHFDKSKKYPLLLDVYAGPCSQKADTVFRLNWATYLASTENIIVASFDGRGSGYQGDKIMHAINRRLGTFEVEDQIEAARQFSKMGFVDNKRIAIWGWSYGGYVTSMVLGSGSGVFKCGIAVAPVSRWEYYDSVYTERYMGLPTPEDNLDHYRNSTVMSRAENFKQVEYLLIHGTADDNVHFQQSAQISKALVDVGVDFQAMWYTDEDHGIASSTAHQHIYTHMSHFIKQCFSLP
Nature of the experiment: DPP-IV assay with Caco-2 cell extract as DPP IV source. It is filed as biochemical. As to conditions: extract of human colon carcinoma cell line Caco-2; AFC substrate 100 μM; 60 minutes, ambient temperature; 11-point curves; read-out: DPP IV inhibition IC50. The protocol: The differentiation of the cells in order to induce the DPP-IV expression was carried out in accordance with the description by Reiher et al. in an article entitled “Increased expression of intestinal cell line Caco-2” that appeared in Proc. Natl. Acad. Sci. Vol. 90, pp. 5757-5761 (1993). The cell extract was obtained from cells solubilized in a buffer (10 mM Tris HCl, 0.15 M NaCl, 0.04 t.i.u. aprotinin, 0.5% Nonidet-P40, pH 8.0) by centrifugation at 35,000 g for 30 minutes at 4° C. (to remove cell debris).
The DPP-IV assay was carried out as follows:
50 μl of substrate solution (AFC; AFC is amido-4-trifluoromethylcoumarin), final concentration 100 μM, was placed in black microtitre plates. 20 μl of assay buffer (final concentrations 50 mM Tris HCl pH 7.8, 50 mM NaCl, 1% DMSO) was pipetted therein. The reaction was started by the addition of 30 μl of solubilized Caco-2 protein (final concentration 0.14 μg of protein per well). The test substances under investigation were typically added prediluted to 20 μl, while the volume of assay buffer was then reduced accordingly. The reaction was carried out at ambient temperature, the incubation period was 60 minutes. Then the fluorescence was measured in a Victor 1420 Multilabel Counter, with the excitation wavelength at 405 nm and the emission wavelength at 535 nm. Dummy values (corresponding to 0% activity) were obtained in mixtures with no Caco-2 protein (volume replaced by assay buffer), control values (corresponding to 100% activity) were obtained in mixtures without any added substance. The potency of the test substances in question, expressed as IC50 values, were calculated from dosage/activity curves consisting of 11 measured points in each case.
As for `CC#CCn1c(N2CCC[C@@H](N)C2)nc2c(=O)n(C)n(Cc3ccc4ccccc4n3)c(=O)c21` [1(1), (R)-1-(but-2-ynyl)-2-(3-amino-piperidin-1-yl)-5-methyl-6-(quinolin-2-ylmethyl)-5,6-dihydro-1H-imidazo[4,5-d]pyridazine-4,7-dione×2 trifluoroacetic acid], the IC50 is 4 nM. In the case of `C=CCn1c(=O)c2nc(N3CCC[C@@H](N)C3)n(CC#CC)c2c(=O)n1Cc1ccc2ccccc2n1` [1(2), (R)-1-(but-2-ynyl)-2-(3-amino-piperidin-1-yl)-5-(prop-2-enyl)-6-(quinolin-2-ylmethyl)-5,6-dihydro-1H-imidazo[4,5-d]pyridazine-4,7-dione×2 trifluoroacetic acid] it was 6 nM. In the case of `CC#CCn1c(N2CCC[C@@H](N)C2)nc2c(=O)n(Cc3ccccc3)n(Cc3ccc4ccccc4n3)c(=O)c21` [1(3), (R)-1-(but-2-ynyl)-2-(3-amino-piperidin-1-yl)-5-(phenylmethyl)-6-(quinolin-2-ylmethyl)-5,6-dihydro-1H-imidazo[4,5-d]pyridazine-4,7-dione×2 trifluoroacetic acid] it was 14 nM.

`CC#CCn1c(N2CCC[C@@H](N)C2)nc2c(=O)n(C)n(Cc3cccc4ccccc34)c(=O)c21` [1(4), (R)-1-(but-2-ynyl)-2-(3-amino-piperidin-1-yl)-5-methyl-6-(naphth-1-ylmethyl)-5,6-dihydro-1H-imidazo[4,5-d]pyridazine-4,7-dione×1 trifluoroacetic acid]: the IC50 came out at 52 nM.

Take `CC#CCn1c(N2CCC[C@@H](N)C2)nc2c(=O)n(CC#N)n(Cc3ccc4ccccc4n3)c(=O)c21` [Example 1, (R)-1-(but-2-ynyl)-2-(3-amino-piperidin-1-yl)-5-cyanomethyl-6-(quinolin-2-ylmethyl)-5,6-dihydro-1H-imidazo[4,5-d]pyridazine-4,7-dione×2 trifluoroacetic acid]: the IC50 came out at 1 nM.
